Measured values from patent US20090029992A1, “SUBSTITUTED PYRAZOLE COMPOUNDS” (priority 2007, published 2009).

Legend:
[1] = biological target: T1, N-terminal His6-tagged recombinant human KDR, residues 790-end (Homo sapiens, UniProt P35968); assay: KDR kinase inhibition assay (33P-ATP filter assay); type: biochemical
T1 construct: recombinant human KDR, residues 790-end; His6 (N); purchased Upstate USA Inc, 706 Forest Street, Charlottesville, Va
Procedure, shortened: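 Radiometric filter assay: reaction started with Mg acetate (10 mM)/[γ-33P]ATP mix, run 40 min at room temperature in 8 mM MOPS pH 7.0 with 0.2 mM EDTA, MBP substrate (0.33 mg/mL) and recombinant KDR 790-end (5-10 mU). Phosphate incorporation by scintillation counting of P30 filtermats, compared with uninhibited reactions.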

[2] = biological target: T2, N-terminal GST-tagged recombinant human Flt3, residues 564-end (Homo sapiens, UniProt P36888); assay: Flt3 kinase inhibition assay (33P-ATP filter assay); type: biochemical
T2 construct: recombinant human Flt3, residues 564-end; GST (N); purchased Upstate USA Inc, 706 Forest Street, Charlottesville, Va
T2 sequence (P36888 564-993 limits assumed): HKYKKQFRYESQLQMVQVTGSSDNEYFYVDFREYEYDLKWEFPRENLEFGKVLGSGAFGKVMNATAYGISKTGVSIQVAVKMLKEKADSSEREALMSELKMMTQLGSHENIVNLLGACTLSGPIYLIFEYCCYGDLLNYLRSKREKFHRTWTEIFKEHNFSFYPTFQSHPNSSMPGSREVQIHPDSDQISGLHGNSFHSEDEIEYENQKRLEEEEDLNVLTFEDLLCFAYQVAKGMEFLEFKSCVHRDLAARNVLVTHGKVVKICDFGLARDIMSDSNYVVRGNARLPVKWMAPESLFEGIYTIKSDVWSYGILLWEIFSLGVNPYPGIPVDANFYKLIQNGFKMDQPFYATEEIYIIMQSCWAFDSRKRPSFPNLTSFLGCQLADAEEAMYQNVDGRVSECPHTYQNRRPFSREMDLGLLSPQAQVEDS
Procedure, shortened: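 Serial compound dilutions incubated 40 min at room temperature with 5-10 mU Flt3 kinase, 50 μM peptide substrate and [γ-33P]ATP/10 mM magnesium acetate, pH 7.0. Phosphoric acid stop, filter capture and scintillation counting; activity compared with uninhibited reactions.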

[3] = group with IC50 greater than 100 nM

T1 sequence (P35968 790-1356 limits assumed): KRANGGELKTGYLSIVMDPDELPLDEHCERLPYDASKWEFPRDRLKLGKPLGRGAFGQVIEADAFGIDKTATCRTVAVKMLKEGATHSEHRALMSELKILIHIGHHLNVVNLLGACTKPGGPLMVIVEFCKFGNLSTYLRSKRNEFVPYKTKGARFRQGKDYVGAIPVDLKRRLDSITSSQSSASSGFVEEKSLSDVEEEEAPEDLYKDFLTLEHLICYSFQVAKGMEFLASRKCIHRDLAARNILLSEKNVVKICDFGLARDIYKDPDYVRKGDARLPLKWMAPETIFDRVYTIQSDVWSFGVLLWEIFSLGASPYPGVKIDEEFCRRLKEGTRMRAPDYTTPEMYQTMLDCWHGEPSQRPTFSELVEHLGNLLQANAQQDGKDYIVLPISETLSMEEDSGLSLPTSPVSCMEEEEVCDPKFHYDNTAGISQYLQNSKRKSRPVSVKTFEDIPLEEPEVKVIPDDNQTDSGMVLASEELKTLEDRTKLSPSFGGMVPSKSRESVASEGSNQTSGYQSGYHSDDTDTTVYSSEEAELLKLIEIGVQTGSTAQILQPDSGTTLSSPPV

IC50 [1, 3]	IC50 ([2]; 40 minutes at room temperature)	IC50 ([1]; 40 minutes at room temperature)	IC50 [2, 3]	SMILES
≤ 1000 nM	≤ 100 nM			COCCN(C)c1cc(Nc2cc(C)[nH]n2)nc(-c2ccccc2Cl)n1 [Compound 63]
≤ 1000 nM	≤ 100 nM			COCCN(C)c1cc(Nc2cc(C)[nH]n2)nc(-c2cccc(C)c2)n1 [Compound 65, N^4-(2-methoxyethyl)-N^4-methyl-N^6-(5-methyl-1H-pyrazol-3-yl)-2-m-tolylpyrimidine-4,6-diamine]
≤ 1000 nM	≤ 100 nM			COCCN(C)c1cc(Nc2cc(C)[nH]n2)nc(-c2ccc(OC)cc2)n1 [Compound 67, N^4-(2-methoxyethyl)-2-(4-methoxyphenyl)-N^4-methyl-N^6-(5-methyl-1H-pyrazol-3-yl)pyrimidine-4,6-diamine]
≤ 1000 nM	≤ 100 nM			COCCN(C)c1cc(Nc2cc(C)[nH]n2)nc(-c2cccc(OC)c2)n1 [Compound 68, N^4-(2-methoxyethyl)-2-(3-methoxyphenyl)-N^4-methyl-N^6-(5-methyl-1H-pyrazol-3-yl)pyrimidine-4,6-diamine]
≤ 1000 nM	≤ 100 nM			Cc1cc(Nc2cc(NC3CCOCC3)nc(-c3ccc(C(C)(C)C)cc3)n2)n[nH]1 [Compound 70, 2-(4-tert-butylphenyl)-N^4-(5-methyl-1H-pyrazol-3-yl)-N^6-(tetrahydro-2H-pyran-4-yl)pyrimidine-4,6-diamine]
	≤ 100 nM			Cc1cc(Nc2cc(NC3CCOCC3)nc(-c3ccc(C(F)(F)F)cc3)n2)n[nH]1 [Compound 79, N^4-(5-methyl-1H-pyrazol-3-yl)-N^6-(tetrahydro-2H-pyran-4-yl)-2-(4-(trifluoromethyl)phenyl)pyrimidine-4,6-diamine]
≤ 1000 nM	≤ 100 nM			Cc1cc(Nc2cc(NC3CCOCC3)nc(-c3cccc(C(F)(F)F)c3)n2)n[nH]1 [Compound 80, N^4-(5-methyl-1H-pyrazol-3-yl)-N^6-(tetrahydro-2H-pyran-4-yl)-2-(3-(trifluoromethyl)phenyl)pyrimidine-4,6-diamine]
≤ 1000 nM	≤ 100 nM			Cc1cc(Nc2cc(NC3CCOCC3)nc(-c3ccccc3C(F)(F)F)n2)n[nH]1 [Compound 81, N^4-(5-methyl-1H-pyrazol-3-yl)-N^6-(tetrahydro-2H-pyran-4-yl)-2-(2-(trifluoromethyl)phenyl)pyrimidine-4,6-diamine]
≤ 1000 nM	≤ 100 nM			Cc1cc(Nc2cc(N3CCN(C)CC3)nc(-c3cc(F)cc(Cl)c3)n2)n[nH]1 [Compound 97]
	≤ 100 nM			Cc1cc(Nc2cc(N3CCN(C)CC3)nc(-c3ccc(C(F)(F)F)cc3)n2)n[nH]1 [Compound 100]
	≤ 100 nM	≤ 100 nM		Cc1cc(Nc2cc(N3CCN(C)CC3)nc(-c3ccccc3C(F)(F)F)n2)n[nH]1 [Compound 102, N-(5-methyl-1H-pyrazol-3-yl)-6-(4-methylpiperazin-1-yl)-2-(2-(trifluoromethyl)phenyl)pyrimidin-4-amine]
≤ 1000 nM	≤ 100 nM			Cc1cc(Nc2cc(N(C)CCN(C)C)nc(-c3ccc(C(C)(C)C)cc3)n2)n[nH]1 [Compound 103, 2-(4-tert-butylphenyl)-N^4-(2-(dimethylamino)ethyl)-N^4-methyl-N^6-(5-methyl-1H-pyrazol-3-yl)pyrimidine-4,6-diamine]
	≤ 100 nM	≤ 100 nM		Cc1cc(Nc2cc(N(C)CCN(C)C)nc(-c3cccc(N(C)C)c3)n2)n[nH]1 [Compound 107]
≤ 1000 nM	≤ 100 nM			Cc1cc(Nc2cc(N(C)CCN(C)C)nc(-c3cccc(C(F)(F)F)c3)n2)n[nH]1 [Compound 113, N^4-(2-(dimethylamino)ethyl)-N^4-methyl-N^6-(5-methyl-1H-pyrazol-3-yl)-2-(3-(trifluoromethyl)phenyl)pyrimidine-4,6-diamine]
≤ 1000 nM	≤ 100 nM			COCCN(C)c1cc(Nc2cc(C)[nH]n2)nc(-c2ccc(N(C)C)cc2)n1 [Compound 118, 2-(4-(dimethylamino)phenyl)-N^4-(2-methoxyethyl)-N^4-methyl-N^6-(5-methyl-1H-pyrazol-3-yl)pyrimidine-4,6-diamine]
≤ 1000 nM			≤ 1000 nM	COCCN(C)c1cc(Nc2cc(C)[nH]n2)nc(-c2cccc(C(F)(F)F)c2)n1 [Compound 125, N^4-(2-methoxyethyl)-N^4-methyl-N^6-(5-methyl-1H-pyrazol-3-yl)-2-(3-(trifluoromethyl)phenyl)pyrimidine-4,6-diamine]
≤ 1000 nM	≤ 100 nM			COCCN(C)c1cc(Nc2cc(C)[nH]n2)nc(-c2ccccc2C(F)(F)F)n1 [Example 126, N^4-(2-methoxyethyl)-N^4-methyl-N^6-(5-methyl-1H-pyrazol-3-yl)-2-(2-(trifluoromethyl)phenyl)pyrimidine-4,6-diamine]
≤ 1000 nM	≤ 100 nM			Cc1cc(Nc2cc(NC3CCOCC3)nc(-c3cccc4ccccc34)n2)n[nH]1 [Example 127, N^4-(5-methyl-1H-pyrazol-3-yl)-2-(naphthalen-1-yl)-N^6-(tetrahydro-2H-pyran-4-yl)pyrimidine-4,6-diamine]
≤ 1000 nM	≤ 100 nM			Cc1cc(Nc2cc(N3CCN(C)CC3)nc(-c3cccc4c3OCCO4)n2)n[nH]1 [Example 136, 2-(2,3-dihydrobenzo[b][1,4]dioxin-5-yl)-N-(5-methyl-1H-pyrazol-3-yl)-6-(4-methylpiperazin-1-yl)pyrimidin-4-amine]
≤ 1000 nM	≤ 100 nM			Cc1cc(Nc2cc(N(C)CCN(C)C)nc(-c3ccc4ccccc4c3)n2)n[nH]1 [Example 142, N^4-(2-(dimethylamino)ethyl)-N^4-methyl-N^6-(5-methyl-1H-pyrazol-3-yl)-2-(naphthalen-2-yl)pyrimidine-4,6-diamine]
≤ 1000 nM	≤ 100 nM			Cc1cc(Nc2cc(N(C)CCN(C)C)nc(-c3ccc4c(c3)OCO4)n2)n[nH]1 [Example 146, 2-(benzo[d][1,3]dioxol-5-yl)-N^4-(2-(dimethylamino)ethyl)-N^4-methyl-N^6-(5-methyl-1H-pyrazol-3-yl)pyrimidine-4,6-diamine]
≤ 1000 nM	≤ 100 nM			COCCN(C)c1cc(Nc2cc(C)[nH]n2)nc(-c2cccc3ccccc23)n1 [Example 148, N^4-(2-methoxyethyl)-N^4-methyl-N^6-(5-methyl-1H-pyrazol-3-yl)-2-(naphthalen-1-yl)pyrimidine-4,6-diamine]
≤ 1000 nM	≤ 100 nM			COCCN(C)c1cc(Nc2cc(C)[nH]n2)nc(-c2ccc3ccccc3c2)n1 [Example 149, N^4-(2-methoxyethyl)-N^4-methyl-N^6-(5-methyl-1H-pyrazol-3-yl)-2-(naphthalen-2-yl)pyrimidine-4,6-diamine]
≤ 1000 nM	≤ 100 nM			COCCN(C)c1cc(Nc2cc(C)[nH]n2)nc(-c2cccc3c2OCCO3)n1 [Example 150, 2-(2,3-dihydrobenzo[b][1,4]dioxin-5-yl)-N^4-(2-methoxyethyl)-N^4-methyl-N^6-(5-methyl-1H-pyrazol-3-yl)pyrimidine-4,6-diamine]
≤ 1000 nM	≤ 100 nM			Cc1cc(Nc2cc(N3CCN(C)CC3)nc(-c3ccc(-c4ccccc4)cc3)n2)n[nH]1 [Example 157, 2-(biphenyl-4-yl)-N-(5-methyl-1H-pyrazol-3-yl)-6-(4-methylpiperazin-1-yl)pyrimidin-4-amine]
